# Structures can show the parent of a compound that is named as a salt.
# What was measured:
# [1] = biological target: T1, HCV polymerase (NS5B) type 1b (Hepatitis C virus genotype 1b, UniProt P26663); test: Assay of enzyme (HCV polymerase) inhibitory activity, type 1b enzyme; assay type: biochemical, HCV BK strain (type 1b); settings: HCV polymerase inhibitory activity (IC50), 1b, type 1b enzyme 0.5 μg/ml, 25° C., 60 min
# T1 construct: a region encoding NS5B (J Virol 1991 March, 65(3), 1105-13, 544 amino acids after deletion of 47 amino acids on the C-terminal); 6xHis (C); made in house; host or cells: Escherichia coli
# In short: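 Rxn: NS5B 1b (BK, ΔC47, His6) 0.5 μg/ml; substrate RNA 5 μg/ml; ATP/GTP/CTP 50 μM, UTP 2 μM + [5,6-3H]UTP; 20 mM Tris pH 7.5, 5 mM MgCl2, 50 mM NaCl, 1 mM EDTA/DTT. 25 °C, 60 min. Stop with TCA/pyrophosphate, filter, scintillation count; IC50 vs. untreated.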
# [2] = biological target: T2, HCV polymerase (NS5B) type 1a (Hepatitis C virus genotype 1a, UniProt P26664); test: Assay of enzyme (HCV polymerase) inhibitory activity, type 1a enzyme; assay type: biochemical, HCV type 1a (cloned from the blood of patients); settings: HCV polymerase inhibitory activity (IC50), 1a, type 1a enzyme 1.5 μg/ml, 25° C., 60 min
# T2 construct: made in house; host or cells: Escherichia coli (by the 'similar method' of the 1b enzyme)
# In short: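 NS5B Δ47 C-term His6 (type 1a, 1.5 μg/ml); substrate RNA 5 μg/ml; ATP/GTP/CTP 50 μM, UTP 2 μM + [5,6-3H]UTP; Tris pH 7.5, MgCl2 5 mM; 25° C, 60 min. TCA/pyrophosphate stop, GF/B filter, scintillation. IC50 vs no-compound control.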
SMILES,IC50 [1],IC50 [2]
"CC(C)c1ccc(CNC(=O)[C@H]2CN(C(=O)Nc3ccccc3)CCN2S(=O)(=O)c2ccc(C(F)(F)F)cc2)cc1 [Example 178, (R)-4-(4-trifluoromethyl-benzenesulfonyl)-piperazine-1,3-dicarboxylic acid 3-(4-isopropyl-benzylamide) 1-phenylamide]",100 to 1000 nM,100 to 1000 nM
"CC(C)c1ccc(CNC(=O)[C@H]2CN(C3=NCCS3)CCN2S(=O)(=O)c2ccc(C(F)(F)F)cc2)cc1 [Example 179, (R)-4-(4,5-dihydro-thiazol-2-yl)-1-(4-trifluoromethyl-benzenesulfonyl)-piperazine-2-carboxylic acid 4-isopropyl-benzylamide]",100 to 1000 nM,100 to 1000 nM
"CC(C)c1ccc(CNC(=O)[C@H]2CN(C(=O)CN3CCOCC3)CCN2S(=O)(=O)c2ccc(C(F)(F)F)cc2)cc1 [Example 180, (R)-4-(2-morpholin-4-yl-acetyl)-1-(4-trifluoromethyl-benzenesulfonyl)-piperazine-2-carboxylic acid 4-isopropyl-benzylamide]",100 to 1000 nM,> 1000 nM
"CC(=O)N1CCN(S(=O)(=O)c2ccc(C(C)C)cc2)C(C(=O)NCc2ccc(N(C)CCO)cc2)C1 (stereo not shown) [Example 181, 4-acetyl-1-(4-isopropyl-benzenesulfonyl)-piperazine-2-carboxylic acid 4-[(2-hydroxy-ethyl)-methyl-amino]-benzylamide]",> 1000 nM,> 1000 nM
"CC(=O)N1CCN(S(=O)(=O)c2ccc(C(C)C)cc2)[C@@H](C(=O)NCc2ccc(Br)cc2Cl)C1 [Example 182, (R)-4-acetyl-1-(4-isopropyl-benzenesulfonyl)-piperazine-2-carboxylic acid 4-bromo-2-chloro-benzylamide]",100 to 1000 nM,100 to 1000 nM
"CC(=O)N1CCN(S(=O)(=O)c2ccc(C(C)C)cc2)[C@@H](C(=O)NCc2ccc(C(C)C)cc2Cl)C1 [Example 183, (R)-4-acetyl-1-(4-isopropyl-benzenesulfonyl)-piperazine-2-carboxylic acid 2-chloro-4-isopropyl-benzylamide]",100 to 1000 nM,100 to 1000 nM
"Cc1csc(N2CCN(S(=O)(=O)c3ccc(C(F)(F)F)cc3)[C@@H](C(=O)NCc3ccc(C(C)C)cc3)C2)n1 [Example 184, (R)-4-(4-methyl-thiazol-2-yl)-1-(4-trifluoromethyl-benzenesulfonyl)-piperazine-2-carboxylic acid 4-isopropyl-benzylamide]",100 to 1000 nM,100 to 1000 nM
"CC(=O)NCC(=O)N1CCN(S(=O)(=O)c2ccc(C(F)(F)F)cc2)[C@@H](C(=O)NCc2ccc(C(C)C)cc2)C1 [Example 185, (R)-4-(2-acetylamino-acetyl)-1-(4-trifluoromethyl-benzenesulfonyl)-piperazine-2-carboxylic acid 4-isopropyl-benzylamide]",100 to 1000 nM,> 1000 nM
"CC(C)c1ccc(CNC(=O)[C@H]2CN(C(=O)CCNC(=O)OC(C)(C)C)CCN2S(=O)(=O)c2ccc(C(F)(F)F)cc2)cc1 [Example 186, {3-[(R)-3-(4-isopropyl-benzylcarbamoyl)-4-(4-trifluoromethyl-benzenesulfonyl)-piperazin-1-yl]-3-oxo-propyl}-carbamic acid tert-butyl ester]",100 to 1000 nM,> 1000 nM
"CC(C)c1ccc(CNC(=O)[C@H]2CN(C(=O)CCC(=O)O)CCN2S(=O)(=O)c2ccc(C(F)(F)F)cc2)cc1 [Example 187, 4-[(R)-3-(4-isopropyl-benzylcarbamoyl)-4-(4-trifluoromethyl-benzenesulfonyl)-piperazin-1-yl]-4-oxo-butyric acid]",> 1000 nM,> 1000 nM
"CC(=O)NCCC(=O)N1CCN(S(=O)(=O)c2ccc(C(F)(F)F)cc2)[C@@H](C(=O)NCc2ccc(C(C)C)cc2)C1 [Example 188, (R)-4-(3-acetylamino-propionyl)-1-(4-trifluoromethyl-benzenesulfonyl)-piperazine-2-carboxylic acid 4-isopropyl-benzylamide]",100 to 1000 nM,100 to 1000 nM
"CC(C)c1ccc(CNC(=O)[C@H]2CN(C(=O)CCN)CCN2S(=O)(=O)c2ccc(C(F)(F)F)cc2)cc1 [Example 189, (R)-4-(3-amino-propionyl)-1-(4-trifluoromethyl-benzenesulfonyl)-piperazine-2-carboxylic acid 4-isopropyl-benzylamide hydrochloride]",> 1000 nM,> 1000 nM
"CC(C)c1ccc(CNC(=O)[C@H]2CN(C(=O)CCCC(=O)O)CCN2S(=O)(=O)c2ccc(C(F)(F)F)cc2)cc1 [Example 190, 5-[(R)-3-(4-isopropyl-benzylcarbamoyl)-4-(4-trifluoromethyl-benzenesulfonyl)-piperazin-1-yl]-5-oxo-pentanoic acid]",100 to 1000 nM,> 1000 nM
"CC(C)c1ccc(CNC(=O)[C@H]2CN(c3nc4ccccc4s3)CCN2S(=O)(=O)c2ccc(C(F)(F)F)cc2)cc1 [Example 191, (R)-4-benzothiazol-2-yl-1-(4-trifluoromethyl-benzenesulfonyl)-piperazine-2-carboxylic acid 4-isopropyl-benzylamide]",100 to 1000 nM,100 to 1000 nM
"CCOc1ccc(S(=O)(=O)N2CCN(C(C)=O)C[C@@H]2C(=O)NCc2ccc(C(C)C)cc2)cc1 [Example 192, (R)-4-acetyl-1-(4-ethoxy-benzenesulfonyl)-piperazine-2-carboxylic acid 4-isopropyl-benzylamide]",100 to 1000 nM,100 to 1000 nM
"CCCOc1ccc(S(=O)(=O)N2CCN(C(C)=O)C[C@@H]2C(=O)NCc2ccc(C(C)C)cc2)cc1 [Example 193, (R)-4-acetyl-1-(4-propoxy-benzenesulfonyl)-piperazine-2-carboxylic acid 4-isopropyl-benzylamide]",100 to 1000 nM,100 to 1000 nM
"CC(=O)N1CCN(S(=O)(=O)c2ccc(CC(C)C)cc2)[C@@H](C(=O)NCc2ccc(C(C)C)cc2)C1 [Example 194, (R)-4-acetyl-1-(4-isobutyl-benzenesulfonyl)-piperazine-2-carboxylic acid 4-isopropyl-benzylamide]",< 100 nM,< 100 nM
"CC(C)c1ccc(CNC(=O)[C@H]2CN(C(=O)Cc3c[nH]cn3)CCN2S(=O)(=O)c2ccc(C(F)(F)F)cc2)cc1 [Example 195, (R)-4-(2-1H-imidazol-4-yl-acetyl)-1-(4-trifluoromethyl-benzenesulfonyl)-piperazine-2-carboxylic acid 4-isopropyl-benzylamide]",100 to 1000 nM,100 to 1000 nM
"CC(=O)N1CCN(S(=O)(=O)C2CCCCC2)C(C(=O)NCc2ccc(C(F)(F)F)cc2)C1 (stereo not shown) [Example 196, 4-acetyl-1-cyclohexanesulfonyl-piperazine-2-carboxylic acid 4-trifluoromethyl-benzylamide]",> 1000 nM,> 1000 nM
"COc1ccc(CNC(=O)C2CN(C(C)=O)CCN2S(=O)(=O)c2ccc(C(C)C)cc2)c(OC)c1 (stereo not shown) [Example 197, 4-acetyl-1-(4-isopropyl-benzenesulfonyl)-piperazine-2-carboxylic acid 2,4-dimethoxy-benzylamide]",> 1000 nM,> 1000 nM
"COc1ccc(CNC(=O)C2CN(C(C)=O)CCN2S(=O)(=O)c2ccc(C(C)C)cc2)cc1OC (stereo not shown) [Example 198, 4-acetyl-1-(4-isopropyl-benzenesulfonyl)-piperazine-2-carboxylic acid 3,4-dimethoxy-benzylamide]",> 1000 nM,> 1000 nM
"CC(C)c1ccc(CNC(=O)[C@H]2CN(C(=O)NCCCC(=O)O)CCN2S(=O)(=O)c2ccc(C(F)(F)F)cc2)cc1 [Example 199, 4-{[(R)-3-(4-isopropyl-benzylcarbamoyl)-4-(4-trifluoromethyl-benzenesulfonyl)-piperazine-1-carbonyl]-amino}-butyric acid]",100 to 1000 nM,> 1000 nM
"CC(C)c1ccc(CNC(=O)[C@H]2CN(C(=O)Nc3ccc(N(C)C)cc3)CCN2S(=O)(=O)c2ccc(C(F)(F)F)cc2)cc1 [Example 200, (R)-4-(4-trifluoromethyl-benzenesulfonyl)-piperazine-1,3-dicarboxylic acid 1-[(4-dimethylamino-phenyl)-amide] 3-(4-isopropyl-benzylamide)]",100 to 1000 nM,> 1000 nM
"CC(C)c1ccc(CNC(=O)[C@H]2CN(C(=O)c3ccncc3)CCN2S(=O)(=O)c2ccc(C(F)(F)F)cc2)cc1 [Example 201, (R)-4-(pyridine-4-carbonyl)-1-(4-trifluoromethyl-benzenesulfonyl)-piperazine-2-carboxylic acid 4-isopropyl-benzylamide]",> 1000 nM,> 1000 nM
"CCCN(C)c1ccc(CNC(=O)C2CN(C(C)=O)CCN2S(=O)(=O)c2ccc(C(C)C)cc2)cc1 (stereo not shown) [Example 202, 4-acetyl-1-(4-isopropyl-benzenesulfonyl)-piperazine-2-carboxylic acid 4-(methyl-propyl-amino)-benzylamide]",100 to 1000 nM,> 1000 nM
"CC(=O)N1CCN(S(=O)(=O)c2ccc3c(c2)CCCC3)[C@@H](C(=O)NCc2ccc(C(C)C)cc2)C1 [Example 203, (R)-4-acetyl-1-(5,6,7,8-tetrahydro-naphthalene-2-sulfonyl)-piperazine-2-carboxylic acid 4-isopropyl-benzylamide]",< 100 nM,100 to 1000 nM
